One assay concerns the target T1, rat FAAH (Rattus norvegicus, UniProt P97612).
T1 construct: made in house; host or cells: E. coli
T1 sequence (P97612 1-579): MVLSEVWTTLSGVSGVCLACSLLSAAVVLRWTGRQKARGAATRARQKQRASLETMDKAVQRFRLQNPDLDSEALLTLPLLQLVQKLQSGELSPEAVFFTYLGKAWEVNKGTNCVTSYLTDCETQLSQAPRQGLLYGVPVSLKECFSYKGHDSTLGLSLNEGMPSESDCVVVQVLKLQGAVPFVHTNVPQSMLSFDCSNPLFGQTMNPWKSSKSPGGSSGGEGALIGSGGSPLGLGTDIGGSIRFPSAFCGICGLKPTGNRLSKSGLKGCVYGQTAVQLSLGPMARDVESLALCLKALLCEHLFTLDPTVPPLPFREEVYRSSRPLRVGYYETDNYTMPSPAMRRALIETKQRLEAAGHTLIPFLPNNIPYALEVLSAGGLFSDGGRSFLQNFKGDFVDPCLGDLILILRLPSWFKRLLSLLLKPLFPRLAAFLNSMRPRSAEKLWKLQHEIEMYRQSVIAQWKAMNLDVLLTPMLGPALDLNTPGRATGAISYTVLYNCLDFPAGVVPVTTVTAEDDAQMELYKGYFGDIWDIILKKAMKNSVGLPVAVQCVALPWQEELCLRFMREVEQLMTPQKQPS
Briefly: FAAH assay, rat FAAH enzyme inactivation (kinact/Ki). In kind it is biochemical. To be noted: pH 7.4, in vitro, oleamide 50 μM, 30° C., read-out: rFAAH kinact/Ki. How it is done: (§1) The FAAH assay was carried out in 384-well clear polystyrene plates (Evergreen Scientific) in a total volume of 50 μl per well in a manner similar to that described by Mileni et al., Proc. Nat. Acad. Sci. 2008, 105, 12820-12824. All percents are by volume. Serial dilutions of compound were initially prepared in 100% DMSO, and then diluted two-fold into HPLC-grade H2O to give 50% DMSO. To each well, was placed the reaction mixture (40 μl) containing 1-4 nM FAAH, 50 mM NaPi, pH 7.4, 3 mM α-ketoglutarate, 0.15 mM NADH, 7.5 U/ml glutamate dehydrogenase, 2 mM ADP, 1 mM EDTA, and 0.1% Triton X-100 (The concentration shown for each component is the final concentration in the assay). To this mixture, was added 5 μl of a compound of Examples 1 to 101 at various concentrations in 50% DMSO (or 5 μl 50% DMSO for controls). This was immediately followed by the addition of 5 μl oleamide (500 μM) dissolved in 75% EtOH/25% DMSO and the reaction mixture was mixed for 1.5 min. The final concentrations of DMSO and EtOH in the assay were each 7.5%. The reactions were incubated at 30° C. and the absorbance at 340 nm was collected over a period of 90 min with readings taken in 30-second intervals using SpectraMax Plus^384 Microplate Spectrophotometer (Molecular Devices, Sunnyvale, Calif.). The human FAAH and rat FAAH used in the assay was prepared as described in the patent application WO 2006/067613 using wild-type E. coli cells transformed in St. Louis, Mo., U.S.A. The purity of the enzyme was greater than 98% based on an analysis by SDS-polyacrylamide gel electrophoresis followed by Coomassie Blue staining.
(§2) Reaction progress curves were corrected for the non-enzymatic oxidation of NADH by subtraction of absorbancies at each time point obtained from control reactions containing no FAAH enzyme. The loss of enzyme activity as a function of time is well-described by the following mathematical equation (1) for a mono-exponential decay: […]
(§3) where At represents the absorbance at time t, A0 represents the absorbance at time zero, and C represents a constant. Observed rates of enzyme inactivation (kobs) were determined from the non-linear reaction progress curves by fitting the corrected absorbancies to an equation for a mono-exponential decay using the third-party Microsoft Excel plug-in, XLfit (IDBS Limited). Secondary plots of kobs vs. inhibitor concentration were prepared from kobs values obtained from progress curves. Second-order rates for enzyme inactivation, expressed as kinact/Ki (M^−1 s^−1), were calculated from the slopes from linear regression analysis of the secondary plot of kobs vs. inhibitor concentration as defined in following equation (2), where [I]<<Ki:
(§4) The concentration of substrate in the assay was equal to the Km for oleamide of 50 μM. Therefore, reported kinact/Ki values are obtained by multiplying resulting slopes by a factor of two (i.e. slope=kinact/(Ki*2)).
(§5) Table 1, below, lists human FAAH (hFAAH) and rat FAAH (rFAAH) enzyme inhibition values for Examples 1-101 as a ratio of kinact/Ki (M^−1 s^−1).

In another assay the target is T2, human FAAH (Homo sapiens, UniProt O00519).
T2 construct: made in house; host or cells: E. coli
T2 sequence (O00519 1-579): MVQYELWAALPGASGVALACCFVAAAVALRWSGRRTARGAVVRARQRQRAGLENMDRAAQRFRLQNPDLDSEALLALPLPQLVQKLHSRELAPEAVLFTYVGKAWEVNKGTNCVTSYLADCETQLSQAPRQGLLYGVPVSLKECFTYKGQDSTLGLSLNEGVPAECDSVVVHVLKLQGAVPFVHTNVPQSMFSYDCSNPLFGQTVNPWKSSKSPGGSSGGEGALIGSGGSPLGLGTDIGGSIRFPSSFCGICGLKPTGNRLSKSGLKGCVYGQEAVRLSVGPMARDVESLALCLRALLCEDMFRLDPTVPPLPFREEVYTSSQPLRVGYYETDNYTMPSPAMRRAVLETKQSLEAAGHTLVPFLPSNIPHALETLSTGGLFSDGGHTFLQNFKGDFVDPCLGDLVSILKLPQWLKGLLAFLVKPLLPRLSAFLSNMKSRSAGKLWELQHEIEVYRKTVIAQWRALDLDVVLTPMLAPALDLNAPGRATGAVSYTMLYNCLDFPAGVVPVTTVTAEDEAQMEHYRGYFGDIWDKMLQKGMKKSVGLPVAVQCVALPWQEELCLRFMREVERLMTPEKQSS
Briefly: FAAH assay, human FAAH enzyme inactivation (kinact/Ki). The note with it: pH 7.4, in vitro, oleamide 50 μM, 30° C., read-out: hFAAH kinact/Ki. It is filed as biochemical. How it is done: as §1, §2, §3, §4, §5

Molecules are shown by their SMILES.

As to `Cc1noc(NC(=O)N2CCC3(CC2)CC(c2ccc(Cl)cc2F)CO3)c1C` (racemic) [Example 27, (3RS)-3-(4-chloro-2-fluorophenyl)-N-(3,4-dimethylisoxazol-5-yl)-1-oxa-8-azaspiro[4.5]decane-8-carboxamide], the kinact/KI on rat FAAH stood at 1140 M⁻¹ s⁻¹; on human FAAH, 2090 M⁻¹ s⁻¹.

Turning to `Cc1noc(NC(=O)N2CCC3(CC2)CC(c2ccc(F)c(Cl)c2)CO3)c1C` (racemic) [Example 28, (3RS)-3-(3-chloro-4-fluorophenyl)-N-(3,4-dimethylisoxazol-5-yl)-1-oxa-8-azaspiro[4.5]decane-8-carboxamide], the kinact/KI at rat FAAH worked out at 3950 M⁻¹ s⁻¹; on human FAAH, 1580 M⁻¹ s⁻¹.

On to `Cc1noc(NC(=O)N2CCC3(CC2)CC(c2ccc(OCc4cccc(C(F)(F)F)n4)cc2)CO3)c1C` (racemic) [Example 29, (3RS)-N-(3,4-dimethylisoxazol-5-yl)-3-(4-{[6-(trifluoromethyl)pyridin-2-yl]methoxy}phenyl)-1-oxa-8-azaspiro[4.5]decane-8-carboxamide], for which the kinact/KI on rat FAAH worked out at 3230 M⁻¹ s⁻¹; on human FAAH, 2110 M⁻¹ s⁻¹.

For `Cc1noc(NC(=O)N2CCC3(CC2)CC(c2ccc(OCc4ccc(F)c(F)c4)cc2)CO3)c1C` (racemic) [Example 30, (3RS)-3-{4-[(3,4-difluorobenzyl)oxy]phenyl}-N-(3,4-dimethylisoxazol-5-yl)-1-oxa-8-azaspiro[4.5]decane-8-carboxamide], the values for the kinact/KI at rat FAAH and at human FAAH were 5800 M⁻¹ s⁻¹ and 7380 M⁻¹ s⁻¹, respectively.

With `Cc1noc(NC(=O)N2CCC3(CC2)CC(c2ccc(OCc4cc(F)ccc4F)cc2)CO3)c1C` (racemic) [Example 31, (3RS)-3-{4-[(2,5-difluorobenzyl)oxy]phenyl}-N-(3,4-dimethylisoxazol-5-yl)-1-oxa-8-azaspiro[4.5]decane-8-carboxamide], the kinact/KI on rat FAAH amounted to 3220 M⁻¹ s⁻¹; at human FAAH, 3580 M⁻¹ s⁻¹.

`Cc1noc(NC(=O)N2CCC3(CC2)CC(c2ccc(OCc4ccc(C(F)(F)F)cn4)cc2)CO3)c1C` (racemic) [Example 32, (3RS)-N-(3,4-dimethylisoxazol-5-yl)-3-(4-{[5-(trifluoromethyl)pyridin-2-yl]methoxy}phenyl)-1-oxa-8-azaspiro[4.5]decane-8-carboxamide]: the results for the kinact/KI at rat FAAH and at human FAAH were 7580 M⁻¹ s⁻¹ and 4120 M⁻¹ s⁻¹, respectively.

Regarding `Cc1noc(NC(=O)N2CCC3(CC2)CC(c2cccc(-c4ccc(F)c(F)c4)c2)CO3)c1C` (racemic) [Example 53, (3RS)-3-(3′,4′-difluorobiphenyl-3-yl)-N-(3,4-dimethylisoxazol-5-yl)-1-oxa-8-azaspiro[4.5]decane-8-carboxamide], the kinact/KI on rat FAAH turned out to be 1470 M⁻¹ s⁻¹; at human FAAH, 2020 M⁻¹ s⁻¹.

Take `Cc1noc(NC(=O)N2CCC3(CC2)CC(c2cccc(-c4ccc(F)cc4)c2)CO3)c1C` (racemic) [Example 54, (3RS)-N-(3,4-dimethylisoxazol-5-yl)-3-(4′-fluorobiphenyl-3-yl)-1-oxa-8-azaspiro[4.5]decane-8-carboxamide]: the kinact/KI on rat FAAH came to 1110 M⁻¹ s⁻¹; on human FAAH it was 2040 M⁻¹ s⁻¹.

Take `Cc1noc(NC(=O)N2CCC3(CC2)CC(c2cccc(-c4ccc(Cl)cc4)c2)CO3)c1C` (racemic) [Example 55, (3RS)-3-(4′-chlorobiphenyl-3-yl)-N-(3,4-dimethylisoxazol-5-yl)-1-oxa-8-azaspiro[4.5]decane-8-carboxamide]: the kinact/KI at rat FAAH amounted to 1160 M⁻¹ s⁻¹; at human FAAH, 2070 M⁻¹ s⁻¹.

As for `Cc1noc(NC(=O)N2CCC3(CC2)CC(c2cccc(-c4ccc(OC(F)(F)F)cc4)c2)CO3)c1C` (racemic) [Example 56, (3RS)-N-(3,4-dimethylisoxazol-5-yl)-3-[4′-(trifluoromethoxy)biphenyl-3-yl]-1-oxa-8-azaspiro[4.5]decane-8-carboxamide], the kinact/KI on rat FAAH is 1140 M⁻¹ s⁻¹; at human FAAH, 1880 M⁻¹ s⁻¹.

For `Cc1noc(NC(=O)N2CCC3(CC2)CC(c2cccc(C(F)(F)F)c2)CO3)c1C` (racemic) [Example 65, (3RS)—N-(3,4-dimethylisoxazol-5-yl)-3-[3-(trifluoromethyl)phenyl]-1-oxa-8-azaspiro[4.5]decane-8-carboxamide], the kinact/KI at rat FAAH stood at 2630 M⁻¹ s⁻¹; on human FAAH, 1100 M⁻¹ s⁻¹.

Regarding `Cc1noc(NC(=O)N2CCC3(CC2)CC(c2noc(-c4ccc(OC(F)(F)F)cc4)n2)CO3)c1C` (racemic) [Example 71, (3RS)—N-(3,4-dimethylisoxazol-5-yl)-3-{5-[4-(trifluoromethoxy)phenyl]-1,2,4-oxadiazol-3-yl}-1-oxa-8-azaspiro[4.5]decane-8-carboxamide], the kinact/KI on rat FAAH came to 1020 M⁻¹ s⁻¹; at human FAAH it was 2610 M⁻¹ s⁻¹.

Turning to `Cc1noc(NC(=O)N2CCC3(CC2)CC(c2noc(-c4ccc(C(F)(F)F)cc4)n2)CO3)c1C` (racemic) [Example 74, (3RS)—N-(3,4-dimethylisoxazol-5-yl)-3-{5-[4-(trifluoromethyl)phenyl]-1,2,4-oxadiazol-3-yl}-1-oxa-8-azaspiro[4.5]decane-8-carboxamide], the kinact/KI at rat FAAH amounted to 1140 M⁻¹ s⁻¹; on human FAAH, 2380 M⁻¹ s⁻¹.

Turning to `Cn1nnnc1NC(=O)N1CCC2(CC1)CC(c1cccc(C(F)(F)F)c1)CO2` (racemic) [Example 92], the results for the kinact/KI at rat FAAH and at human FAAH were 3120 M⁻¹ s⁻¹ and 5240 M⁻¹ s⁻¹, respectively.

With `Cc1noc(NC(=O)N2CCC3(CC2)CC(F)(c2cc(F)cc(Cl)c2)CO3)c1C` (racemic) [Example 100, (3RS)-3-(3-chloro-5-fluorophenyl)-N-(3,4-dimethylisoxazol-5-yl)-3-fluoro-1-oxa-8-azaspiro[4.5]decane-8-carboxamide], the figures for the kinact/KI at rat FAAH and at human FAAH were 1120 M⁻¹ s⁻¹ and 871 M⁻¹ s⁻¹, respectively.

Turning to `O=C(Nc1noc2ccccc12)N1CCC2(CC1)CC(c1cccc(Oc3ccc(Cl)cn3)c1)CO2` (racemic) [Example 101, (3RS)—N-1,2-benzisoxazol-3-yl-3-{3-[(5-chloropyridin-2-yl)oxy]phenyl}-1-oxa-8-azaspiro[4.5]decane-8-carboxamide], the kinact/KI amounted to 8330 M⁻¹ s⁻¹ on rat FAAH and 1780 M⁻¹ s⁻¹ on human FAAH.

(Values after US20110230493A1, “1-OXA-8-Azaspiro [4,5] Decabe-8-Carboxamide Compounds as FAAH Inhibitors” (Pfizer Inc., priority 2008, published 2011).)
